In ChEMBL document CHEMBL1938343, “Lead optimisation of selective non-zinc binding inhibitors of MMP13. Part 2” (Bioorg Med Chem Lett, 2012):
≈ marks a conversion by molar mass, not a printed value.

Legend:
Cytochrome P450 1A2 = biological target: T1, Cytochrome P450 1A2 (Homo sapiens, UniProt P05177); test: Inhibition of CYP1A2; format: ADME
T1 sequence (P05177 whole entry): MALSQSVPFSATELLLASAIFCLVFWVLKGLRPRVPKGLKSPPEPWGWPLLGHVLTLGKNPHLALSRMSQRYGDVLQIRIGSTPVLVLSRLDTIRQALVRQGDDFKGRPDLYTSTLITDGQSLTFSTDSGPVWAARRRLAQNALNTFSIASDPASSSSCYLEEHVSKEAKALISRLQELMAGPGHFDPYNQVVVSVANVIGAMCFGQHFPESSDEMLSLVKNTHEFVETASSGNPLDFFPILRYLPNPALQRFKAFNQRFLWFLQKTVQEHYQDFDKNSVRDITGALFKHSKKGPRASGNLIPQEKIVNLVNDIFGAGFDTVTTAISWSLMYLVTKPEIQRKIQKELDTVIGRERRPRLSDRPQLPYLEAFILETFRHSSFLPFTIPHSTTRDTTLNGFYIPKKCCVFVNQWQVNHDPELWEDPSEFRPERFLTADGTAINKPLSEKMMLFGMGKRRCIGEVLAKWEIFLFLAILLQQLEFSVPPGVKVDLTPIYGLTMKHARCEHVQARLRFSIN

Cytochrome P450 2C9 = Cytochrome P450 2C9 (Homo sapiens, UniProt P11712); test: Inhibition of CYP2C9; format: ADME; conditions: read-out: pIC50 (converted)
Cytochrome P450 2C19 = Cytochrome P450 2C19 (Homo sapiens, UniProt P33261); test: Inhibition of CYP2C19; format: ADME; conditions: read-out: pIC50 (converted)
Cytochrome P450 2D6 = Cytochrome P450 2D6 (Homo sapiens, UniProt P10635); test: Inhibition of CYP2D6; format: ADME; conditions: read-out: pIC50 (converted)
Cytochrome P450 3A4 = Cytochrome P450 3A4 (Homo sapiens, UniProt P08684); test: Inhibition of CYP3A4; format: ADME; conditions: read-out: pIC50 (converted)
[1] = Clearance in rat at 2 mg/kg, iv; format: ADME, organism-based; parameters: dose 2 mg/kg, route intravenous; conditions: in vivo
[2] = Volume of distribution at steady state in rat at 2 mg/kg, iv; format: ADME, organism-based; parameters: dose 2 mg/kg, route intravenous; conditions: in vivo, read-out: Vdss
[3] = Half life in rat at 2 mg/kg, iv; format: ADME, organism-based; parameters: dose 2 mg/kg, route intravenous; conditions: in vivo
[4] = Apparent permeability across apical to basolateral side in human Caco2 cells at 10 uM; format: ADME, cell-based; conditions: Caco-2
[5] = Apparent permeability across basolateral to apical side in human Caco2 cells at 10 uM; format: ADME, cell-based; conditions: Caco-2
[6] = (§1) Oral bioavailability in rat; format: ADME, organism-based; conditions: in vivo
Collagenase 3 = Collagenase 3 (Homo sapiens, UniProt P45452); test: Inhibition of recombinant human MMP13 using Mca-Pro-cyclohexyl-Ala-Gly-Nva-His-Ala- Dap(Dnp)-NH2 as substrate by fluorometric analysis; conditions: read-out: pIC50 (converted)
[7] = biological target: 72 kDa type IV collagenase (Homo sapiens, UniProt P08253); test: Inhibition of MMP2 using Mca-Pro-cyclohexyl-Ala-Gly-Nva-His-Ala- Dap(Dnp)-NH2 as substrate by fluorometric analysis; conditions: read-out: pIC50 (converted)
[8] = Intrinsic clearance in human microsomes; format: ADME, Microsome
[9] = biological target: Matrix metalloproteinase-9 (Homo sapiens, UniProt P14780); test: Inhibition of MMP9 using Mca-Pro-cyclohexyl-Ala-Gly-Nva-His-Ala- Dap(Dnp)-NH2 as substrate by fluorometric analysis
[10] = biological target: Macrophage metalloelastase (Homo sapiens, UniProt P39900); test: Inhibition of MMP12 using Mca-Pro-cyclohexyl-Ala-Gly-Nva-His-Ala- Dap(Dnp)-NH2 as substrate by fluorometric analysis
[11] = biological target: Matrix metalloproteinase-14 (Homo sapiens, UniProt P50281); test: Inhibition of MMP14 using Mca-Pro-cyclohexyl-Ala-Gly-Nva-His-Ala- Dap(Dnp)-NH2 as substrate by fluorometric analysis
[12] = Lipophilicity, log D of the compound; conditions: octanol/water
[13] = Thermodynamic solubility of the compound; conditions: Therm_solubility
[14] = Fraction unbound in human; format: ADME, organism-based; conditions: in vivo
[15] = Fraction unbound in rat; format: ADME, organism-based; conditions: in vivo
[16] = Intrinsic clearance in Sprague-Dawley rat hepatocytes assessed per 10^6 cells; format: ADME, cell-based, Hepatocyte; conditions: Sprague-Dawley, read-out: CLH
[17] = biological target: T2, A disintegrin and metalloproteinase with thrombospondin motifs 1 (Homo sapiens) (UniProt Q9UHI8); test: Inhibition of ADAM-TS1 dimethoxyfluorescein-Ser-Pro-Leu-Ala-Gln-Ala- Val-Arg-ser-Ser-Arg-Cys-fluorescein
T2 sequence (whole entry): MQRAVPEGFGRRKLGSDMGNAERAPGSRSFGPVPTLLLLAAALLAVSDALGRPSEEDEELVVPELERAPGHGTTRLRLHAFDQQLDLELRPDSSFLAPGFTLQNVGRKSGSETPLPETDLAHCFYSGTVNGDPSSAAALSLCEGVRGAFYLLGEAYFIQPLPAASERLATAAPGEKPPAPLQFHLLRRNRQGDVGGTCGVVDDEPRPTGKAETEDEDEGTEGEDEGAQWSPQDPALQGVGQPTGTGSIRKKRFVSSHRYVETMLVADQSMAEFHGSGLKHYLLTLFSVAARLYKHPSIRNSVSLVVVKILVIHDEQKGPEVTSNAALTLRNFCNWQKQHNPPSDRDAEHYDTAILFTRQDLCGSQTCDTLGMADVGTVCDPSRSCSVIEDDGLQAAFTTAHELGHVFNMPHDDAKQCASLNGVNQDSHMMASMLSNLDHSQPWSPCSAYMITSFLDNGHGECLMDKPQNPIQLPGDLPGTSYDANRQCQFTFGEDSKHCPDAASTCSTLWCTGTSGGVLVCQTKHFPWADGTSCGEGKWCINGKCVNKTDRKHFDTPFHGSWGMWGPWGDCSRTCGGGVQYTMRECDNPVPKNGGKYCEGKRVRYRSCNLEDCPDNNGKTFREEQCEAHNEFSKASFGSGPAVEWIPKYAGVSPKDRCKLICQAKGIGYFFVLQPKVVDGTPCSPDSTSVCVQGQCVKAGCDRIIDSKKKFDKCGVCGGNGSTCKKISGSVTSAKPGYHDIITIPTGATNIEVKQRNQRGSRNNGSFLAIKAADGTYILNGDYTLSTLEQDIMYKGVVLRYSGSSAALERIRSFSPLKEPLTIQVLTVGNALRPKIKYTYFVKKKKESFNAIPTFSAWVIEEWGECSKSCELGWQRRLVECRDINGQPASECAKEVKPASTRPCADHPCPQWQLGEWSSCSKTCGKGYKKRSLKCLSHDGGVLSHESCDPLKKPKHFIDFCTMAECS

[18] = biological target: T3, A disintegrin and metalloproteinase with thrombospondin motifs 4 (Homo sapiens) (UniProt O75173); test: Inhibition of ADAM-TS4 using dimethoxyfluorescein-Ser-Pro-Leu-Ala-Gln-Ala- Val-Arg-ser-Ser-Arg-Cys-fluorescein as substrate
T3 sequence (whole entry): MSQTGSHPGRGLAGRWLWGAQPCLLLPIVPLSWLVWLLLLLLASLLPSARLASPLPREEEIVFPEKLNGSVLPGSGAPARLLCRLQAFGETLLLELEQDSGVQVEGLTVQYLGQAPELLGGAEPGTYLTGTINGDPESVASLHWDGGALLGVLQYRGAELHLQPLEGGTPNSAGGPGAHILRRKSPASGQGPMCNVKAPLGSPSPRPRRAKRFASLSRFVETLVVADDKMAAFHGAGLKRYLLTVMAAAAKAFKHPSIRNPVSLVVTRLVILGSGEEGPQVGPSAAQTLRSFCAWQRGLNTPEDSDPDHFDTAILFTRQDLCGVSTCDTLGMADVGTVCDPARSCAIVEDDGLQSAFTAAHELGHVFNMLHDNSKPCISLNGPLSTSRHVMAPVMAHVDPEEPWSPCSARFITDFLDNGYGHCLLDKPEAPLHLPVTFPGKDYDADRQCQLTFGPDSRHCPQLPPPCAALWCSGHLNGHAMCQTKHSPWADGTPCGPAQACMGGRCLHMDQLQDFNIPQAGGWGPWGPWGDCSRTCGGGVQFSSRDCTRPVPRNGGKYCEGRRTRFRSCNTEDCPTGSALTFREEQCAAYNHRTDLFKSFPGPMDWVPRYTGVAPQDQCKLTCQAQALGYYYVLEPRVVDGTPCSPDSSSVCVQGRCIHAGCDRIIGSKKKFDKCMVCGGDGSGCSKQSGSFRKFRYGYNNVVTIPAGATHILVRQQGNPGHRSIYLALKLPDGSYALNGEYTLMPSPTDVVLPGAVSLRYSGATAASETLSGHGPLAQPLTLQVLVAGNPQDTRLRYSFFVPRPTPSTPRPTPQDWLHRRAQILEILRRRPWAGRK

[19] = biological target: T4, A disintegrin and metalloproteinase with thrombospondin motifs 5 (Homo sapiens) (UniProt Q9UNA0); test: Inhibition of ADAM-TS5 using dimethoxyfluorescein-Ser-Pro-Leu-Ala-Gln-Ala- Val-Arg-ser-Ser-Arg-Cys-fluorescein as substrate
T4 sequence (whole entry): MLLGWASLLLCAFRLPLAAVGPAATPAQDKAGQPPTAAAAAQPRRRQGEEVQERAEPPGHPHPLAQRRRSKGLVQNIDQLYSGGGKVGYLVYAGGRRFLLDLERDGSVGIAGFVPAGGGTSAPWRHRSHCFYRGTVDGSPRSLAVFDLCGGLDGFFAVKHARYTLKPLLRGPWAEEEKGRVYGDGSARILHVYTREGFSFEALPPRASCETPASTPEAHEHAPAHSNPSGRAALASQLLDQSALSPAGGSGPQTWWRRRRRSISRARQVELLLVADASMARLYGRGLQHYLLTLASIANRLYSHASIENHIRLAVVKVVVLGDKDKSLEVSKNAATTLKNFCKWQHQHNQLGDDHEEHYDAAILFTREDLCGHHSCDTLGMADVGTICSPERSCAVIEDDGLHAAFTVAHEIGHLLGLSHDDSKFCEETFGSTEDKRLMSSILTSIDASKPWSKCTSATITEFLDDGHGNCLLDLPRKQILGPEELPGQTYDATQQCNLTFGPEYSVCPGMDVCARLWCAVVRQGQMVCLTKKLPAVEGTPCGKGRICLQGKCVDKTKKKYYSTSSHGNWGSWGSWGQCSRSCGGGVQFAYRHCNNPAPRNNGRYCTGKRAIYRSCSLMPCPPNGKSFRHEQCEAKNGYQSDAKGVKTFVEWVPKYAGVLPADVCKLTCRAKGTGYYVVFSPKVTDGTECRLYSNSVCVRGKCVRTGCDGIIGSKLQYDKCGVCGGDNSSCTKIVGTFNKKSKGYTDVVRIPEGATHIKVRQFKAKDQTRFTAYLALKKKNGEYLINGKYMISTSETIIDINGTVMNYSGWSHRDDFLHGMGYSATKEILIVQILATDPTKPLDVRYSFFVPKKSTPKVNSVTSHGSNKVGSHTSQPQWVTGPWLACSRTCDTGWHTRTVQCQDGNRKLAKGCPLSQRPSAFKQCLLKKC

Rattus norvegicus = test: as §1; format: ADME, organism-based; conditions: in vivo
[20] = Oral bioavailability in rat at 2 to 50 mg/kg; format: ADME, organism-based; conditions: in vivo

Matrix metalloproteinase-9, sequence (P14780 whole entry): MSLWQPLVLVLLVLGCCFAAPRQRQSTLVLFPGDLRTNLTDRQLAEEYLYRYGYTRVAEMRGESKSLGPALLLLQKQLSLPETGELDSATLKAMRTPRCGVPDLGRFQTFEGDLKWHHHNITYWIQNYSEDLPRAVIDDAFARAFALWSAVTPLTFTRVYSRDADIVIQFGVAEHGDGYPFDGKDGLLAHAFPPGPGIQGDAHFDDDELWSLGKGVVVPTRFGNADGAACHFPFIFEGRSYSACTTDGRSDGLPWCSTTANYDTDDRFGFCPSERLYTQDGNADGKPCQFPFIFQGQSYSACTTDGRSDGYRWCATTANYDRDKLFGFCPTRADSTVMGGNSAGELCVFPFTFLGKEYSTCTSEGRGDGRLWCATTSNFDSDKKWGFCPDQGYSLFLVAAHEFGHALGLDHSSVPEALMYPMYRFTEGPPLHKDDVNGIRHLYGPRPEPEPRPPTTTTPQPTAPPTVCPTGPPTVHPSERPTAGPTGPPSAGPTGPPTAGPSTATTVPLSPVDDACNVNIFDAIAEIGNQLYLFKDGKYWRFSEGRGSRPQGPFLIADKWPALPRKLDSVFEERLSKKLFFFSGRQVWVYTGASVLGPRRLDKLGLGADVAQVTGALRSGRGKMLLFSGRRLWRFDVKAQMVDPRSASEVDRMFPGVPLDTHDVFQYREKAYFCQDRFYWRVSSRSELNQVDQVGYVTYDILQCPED
72 kDa type IV collagenase, sequence (P08253 whole entry): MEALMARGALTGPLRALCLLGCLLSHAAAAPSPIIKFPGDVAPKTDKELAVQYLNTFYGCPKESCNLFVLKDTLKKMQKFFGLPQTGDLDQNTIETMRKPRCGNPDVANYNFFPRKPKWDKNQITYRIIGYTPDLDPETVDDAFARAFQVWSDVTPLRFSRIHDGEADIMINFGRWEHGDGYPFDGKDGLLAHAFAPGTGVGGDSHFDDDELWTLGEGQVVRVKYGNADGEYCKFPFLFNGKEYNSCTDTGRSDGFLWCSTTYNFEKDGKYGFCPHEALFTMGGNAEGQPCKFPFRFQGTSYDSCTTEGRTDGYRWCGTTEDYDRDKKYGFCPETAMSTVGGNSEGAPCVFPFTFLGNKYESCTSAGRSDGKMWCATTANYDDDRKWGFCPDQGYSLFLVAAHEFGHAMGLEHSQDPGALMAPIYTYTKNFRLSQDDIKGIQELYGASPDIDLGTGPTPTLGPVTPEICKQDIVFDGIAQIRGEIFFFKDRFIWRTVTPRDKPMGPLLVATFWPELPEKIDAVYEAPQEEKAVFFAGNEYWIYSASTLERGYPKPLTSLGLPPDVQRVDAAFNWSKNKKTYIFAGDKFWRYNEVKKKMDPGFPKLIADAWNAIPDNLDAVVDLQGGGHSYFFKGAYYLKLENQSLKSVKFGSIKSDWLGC
Macrophage metalloelastase, sequence (P39900 whole entry): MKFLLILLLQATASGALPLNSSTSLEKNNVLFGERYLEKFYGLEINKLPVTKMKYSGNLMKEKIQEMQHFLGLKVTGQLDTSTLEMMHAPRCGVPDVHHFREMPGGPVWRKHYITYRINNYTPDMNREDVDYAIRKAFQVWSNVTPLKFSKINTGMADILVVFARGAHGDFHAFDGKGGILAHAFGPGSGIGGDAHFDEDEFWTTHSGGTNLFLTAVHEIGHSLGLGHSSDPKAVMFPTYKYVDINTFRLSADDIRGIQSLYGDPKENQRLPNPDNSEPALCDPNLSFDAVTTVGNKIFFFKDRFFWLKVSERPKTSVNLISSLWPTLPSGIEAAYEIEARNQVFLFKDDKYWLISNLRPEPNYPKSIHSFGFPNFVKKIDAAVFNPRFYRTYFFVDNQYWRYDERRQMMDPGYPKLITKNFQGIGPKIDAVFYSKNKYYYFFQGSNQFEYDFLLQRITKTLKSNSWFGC
Cytochrome P450 2C19, sequence (P33261 whole entry): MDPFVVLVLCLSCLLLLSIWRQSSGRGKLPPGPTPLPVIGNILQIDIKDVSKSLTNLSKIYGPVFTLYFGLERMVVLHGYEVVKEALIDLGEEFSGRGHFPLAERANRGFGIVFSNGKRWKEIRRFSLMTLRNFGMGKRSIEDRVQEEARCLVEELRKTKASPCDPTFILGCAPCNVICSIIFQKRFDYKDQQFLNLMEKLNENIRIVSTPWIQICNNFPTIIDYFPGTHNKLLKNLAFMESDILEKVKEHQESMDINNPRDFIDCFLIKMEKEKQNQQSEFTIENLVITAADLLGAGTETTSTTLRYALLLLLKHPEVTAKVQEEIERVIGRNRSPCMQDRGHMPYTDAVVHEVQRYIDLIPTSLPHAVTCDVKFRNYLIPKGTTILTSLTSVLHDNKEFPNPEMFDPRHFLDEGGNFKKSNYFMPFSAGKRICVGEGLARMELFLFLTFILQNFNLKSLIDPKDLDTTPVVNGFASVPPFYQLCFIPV
Cytochrome P450 2D6, sequence (P10635 whole entry): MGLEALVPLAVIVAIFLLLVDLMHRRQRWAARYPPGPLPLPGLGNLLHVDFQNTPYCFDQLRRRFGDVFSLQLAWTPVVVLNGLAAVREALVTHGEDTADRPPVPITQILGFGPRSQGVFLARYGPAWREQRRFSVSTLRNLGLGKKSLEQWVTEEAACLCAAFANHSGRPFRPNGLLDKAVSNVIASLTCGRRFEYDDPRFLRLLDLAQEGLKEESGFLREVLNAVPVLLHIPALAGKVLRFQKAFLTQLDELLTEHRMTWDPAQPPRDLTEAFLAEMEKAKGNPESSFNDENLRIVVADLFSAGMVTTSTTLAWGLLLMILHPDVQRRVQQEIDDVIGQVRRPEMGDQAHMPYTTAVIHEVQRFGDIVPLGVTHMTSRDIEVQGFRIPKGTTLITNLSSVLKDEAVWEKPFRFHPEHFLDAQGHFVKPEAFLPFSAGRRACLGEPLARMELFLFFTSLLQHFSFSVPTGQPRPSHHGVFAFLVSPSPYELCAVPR
Cytochrome P450 2C9, sequence (P11712 whole entry): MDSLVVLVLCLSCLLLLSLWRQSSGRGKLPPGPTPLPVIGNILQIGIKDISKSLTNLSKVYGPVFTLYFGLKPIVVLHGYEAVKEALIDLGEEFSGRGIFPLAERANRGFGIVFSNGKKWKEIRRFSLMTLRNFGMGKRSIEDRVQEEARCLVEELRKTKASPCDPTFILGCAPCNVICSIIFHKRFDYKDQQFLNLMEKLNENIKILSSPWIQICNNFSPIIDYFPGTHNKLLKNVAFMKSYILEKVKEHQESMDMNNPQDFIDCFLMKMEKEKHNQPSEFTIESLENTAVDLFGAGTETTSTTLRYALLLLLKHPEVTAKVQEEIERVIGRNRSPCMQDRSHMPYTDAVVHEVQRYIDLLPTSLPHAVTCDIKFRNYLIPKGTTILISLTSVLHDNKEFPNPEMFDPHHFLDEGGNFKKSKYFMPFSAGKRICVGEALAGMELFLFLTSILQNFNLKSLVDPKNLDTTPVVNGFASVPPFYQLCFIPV
Cytochrome P450 3A4, sequence (P08684 whole entry): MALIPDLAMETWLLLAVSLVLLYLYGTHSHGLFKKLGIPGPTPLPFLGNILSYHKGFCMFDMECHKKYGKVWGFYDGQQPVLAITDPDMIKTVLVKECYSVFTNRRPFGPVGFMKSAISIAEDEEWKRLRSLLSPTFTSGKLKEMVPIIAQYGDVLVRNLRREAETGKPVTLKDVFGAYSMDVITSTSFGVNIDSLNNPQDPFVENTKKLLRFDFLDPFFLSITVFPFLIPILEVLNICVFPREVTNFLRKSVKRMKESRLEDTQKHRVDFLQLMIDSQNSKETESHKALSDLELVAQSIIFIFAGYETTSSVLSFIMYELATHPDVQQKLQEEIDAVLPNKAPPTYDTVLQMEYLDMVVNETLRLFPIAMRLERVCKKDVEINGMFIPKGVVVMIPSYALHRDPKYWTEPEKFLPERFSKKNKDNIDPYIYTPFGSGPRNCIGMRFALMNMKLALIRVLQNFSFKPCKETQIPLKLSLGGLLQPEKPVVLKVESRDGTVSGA

CNC(=O)c1ccc(Oc2ccc(C#C[C@]3(O)CN4CCC3CC4)cc2)cc1
IC50 (Cytochrome P450 1A2): > 10 µM | IC50 (Cytochrome P450 2C9): > 10 µM | IC50 (Cytochrome P450 2C19): > 10 µM | IC50 (Cytochrome P450 2D6): > 10 µM | IC50 (Cytochrome P450 3A4): > 10 µM | clearance [1]: 16 mL/min/kg | Vd [2]: 2.4 L/kg | half-life [3]: 1.9 h | Papp A→B at 10 µM [4]: 23 ×10⁻⁶ cm/s | Papp B→A at 10 µM [5]: 34 ×10⁻⁶ cm/s | bioavailability [6]: 54% | IC50 (Collagenase 3): 0.2 µM | IC50 [7]: 20 µM | microsomal CLint [8]: 3.9 µL/min/mg | IC50 ([9]; read-out: pIC50 (converted)): > 100 µM | IC50 ([10]; read-out: pIC50 (converted)): > 100 µM | IC50 ([11]; read-out: pIC50 (converted)): > 100 µM | logD [12]: 2 | solubility thermodynamic [13]: > 1600 µM | fraction unbound [14]: 0.24 | fraction unbound [15]: 0.26 | hepatocyte CLint [16]: 2.7 µL/min/1e6 cells

O=C(NC1CCCS(=O)(=O)C1)c1ccc(Oc2ccc(C#C[C@]3(O)CN4CCC3CC4)cc2)cc1 (single isomer, unassigned; diastereomer 1)
INH [17]: > 100 µM | INH [18]: > 10 µM | INH [19]: > 10 µM

O=C(NC1CCCS(=O)(=O)C1)c1ccc(Oc2ccc(C#C[C@]3(O)CN4CCC3CC4)cc2)cc1 (single isomer, unassigned; diastereomer 2)
F (Rattus norvegicus): 0% | IC50 (Collagenase 3): 0.01 µM | IC50 [7]: 2.51 µM | microsomal CLint [8]: < 2 µL/min/mg | pIC50 [9]: < 5 | pIC50 [10]: < 5 | pIC50 [11]: < 5 | solubility thermodynamic [13]: 120 µM (≈ 59.4 µg/mL) | hepatocyte CLint [16]: 3.4 µL/min/1e6 cells

O=C(NCc1ccncn1)c1ccc(Oc2ccc(C#C[C@]3(O)CN4CCC3CC4)cc2)cc1
bioavailability [20]: 2% | Papp A→B at 10 µM [4]: 6.7 ×10⁻⁶ cm/s | Papp B→A at 10 µM [5]: 33 ×10⁻⁶ cm/s | logD [12]: 1.8 | hepatocyte CLint [16]: 3.2 µL/min/1e6 cells
